From patent publication US20050219340A1, “Actinic ray curable ink composition, image forming method and ink-jet recording apparatus using the same” (KONICA MINOLTA MEDICAL & GRAPHIC, INC., priority 2004, published 2005)

Assay: physchem
Protocol: P(O/W), as described in the present invention, refers to the partition coefficient between 1-octanol and water and is as defined for the value which is treated as information to judge accumulativeness in the bodies of fish and shellfish, in the course of registration of new compounds, to conform in the Law Concerning Examination and Regulation of Manufacture etc. of Chemical Substances (a Japanese law), and is represented by the formula below; P(O/W)=CO/CW wherein CO represents the concentration (in mg/L) of a compound in the 1-octanol layer, while CW represents the concentration (in mg/L) of the above compound in the water layer.

Compound | logP
COc1ccc([S+](c2ccc(C)cc2)c2ccc(C)cc2)cc1 [Compound S-3] | 0.12
COc1ccc([S+](c2ccc(C)cc2)c2ccc(OC)cc2)cc1 [Compound S-2] | 0.12
COc1ccc([S+](c2ccc(OC)cc2)c2ccc(Oc3ccc(C)cc3)cc2)cc1 [Compound S-4] | 0.15
COc1ccc([S+](c2ccc(OC)cc2)c2ccc(OC)cc2)cc1 [Compound S-1] | 0.1
